Measurements as given in patent publication US11198713B2, “Agents modulating beta-catenin functions and methods thereof” (FOG PHARMACEUTICALS, INC., priority 2017, dated 2021).

These molecules were tested against T1, full-length beta-catenin (Axin site) (Homo sapiens, UniProt P35222) (assay: Competition fluorescence polarization assay (Axin site probe)). Settings: competition fluorescence polarization, Table 2; read-out: in vitro FP EC50.
T1 construct: 15 nM full-length beta-catenin, 20 nM FITC labeled peptide in buffer
T1 sequence (P35222 1-781): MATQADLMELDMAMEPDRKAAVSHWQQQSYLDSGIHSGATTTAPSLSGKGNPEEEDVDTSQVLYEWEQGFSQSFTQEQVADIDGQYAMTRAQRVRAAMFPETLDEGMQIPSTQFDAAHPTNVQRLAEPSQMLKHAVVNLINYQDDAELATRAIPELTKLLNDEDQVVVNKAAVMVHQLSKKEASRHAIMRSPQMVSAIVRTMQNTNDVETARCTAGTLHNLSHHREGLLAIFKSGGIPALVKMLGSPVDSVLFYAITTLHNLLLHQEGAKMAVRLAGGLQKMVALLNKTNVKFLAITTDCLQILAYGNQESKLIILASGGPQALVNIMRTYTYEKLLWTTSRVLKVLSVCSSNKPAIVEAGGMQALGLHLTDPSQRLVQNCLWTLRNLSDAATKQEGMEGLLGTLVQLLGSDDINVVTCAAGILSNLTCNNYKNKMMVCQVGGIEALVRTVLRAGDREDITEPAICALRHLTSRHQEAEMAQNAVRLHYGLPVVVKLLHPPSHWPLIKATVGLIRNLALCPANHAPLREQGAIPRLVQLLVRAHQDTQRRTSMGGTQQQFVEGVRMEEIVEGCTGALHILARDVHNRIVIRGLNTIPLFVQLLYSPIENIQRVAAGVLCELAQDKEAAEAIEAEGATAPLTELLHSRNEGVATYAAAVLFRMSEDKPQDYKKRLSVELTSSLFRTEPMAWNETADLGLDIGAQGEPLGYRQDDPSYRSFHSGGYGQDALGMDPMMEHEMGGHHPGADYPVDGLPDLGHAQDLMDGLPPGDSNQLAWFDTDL
Type: binding
Summary of the method: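 Competition FP: 15 nM full-length β-catenin pre-incubated 5 min with 20 nM FITC-labelled stapled Axin-site peptide, then titrated peptide added (3-fold series from 5 μM) for 15 min in the dark. Buffer 50 mM Tris pH 8.0, 250 mM NaCl, 2% glycerol, 0.5 mM EDTA; duplicate reads.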

EC50, > 5 µM:
CC[C@H](C)[C@@H]1NC(=O)[C@H](Cc2ccccn2)NC(=O)[C@H](C)NC(=O)[C@H](CC(=O)O)NC(=O)[C@H](CC(C)C)NC(=O)[C@H]([C@@H](C)CC)NC(=O)[C@](C)(NC(=O)[C@H](C)NC(C)=O)CCCCCCC=CCOC(=O)N2CC[C@@](C(=O)N[C@@H](CC3CCCCC3)C(=O)N[C@H](C(=O)N[C@@H](Cc3c[nH]c4ccccc34)C(N)=O)C(C)C)(C2)NC1=O (single isomer, unassigned) [FP0566c Isomer 1, Ac-A-R8-I-L-D-A-2pyr-I-MB-Cha-V-W-NH2]
CCC[C@H](NC(=O)[C@]12CCN(C1)C(=O)OCC=CCCCCCC[C@@](C)(NC(=O)[C@H](C)NC(C)=O)C(=O)N[C@@H]([C@@H](C)CC)C(=O)N[C@@H](CC(C)C)C(=O)N[C@@H](CC(=O)O)C(=O)N[C@@H](C)C(=O)N[C@@H](Cc1ccccn1)C(=O)N[C@@H]([C@@H](C)CC)C(=O)N2)C(=O)N[C@H](C(=O)N[C@@H](Cc1c[nH]c2ccccc12)C(N)=O)C(C)C (single isomer, unassigned) [FP0567c Isomer 1, Ac-A-R8-I-L-D-A-2pyr-I-MB-Nva-V-W-NH2]
CCC[C@H](NC(=O)[C@]12CCN(C1)C(=O)OCC=CCCCCCC[C@@](C)(NC(=O)[C@H](C)NC(C)=O)C(=O)N[C@@H]([C@@H](C)CC)C(=O)N[C@@H](CC(C)C)C(=O)N[C@@H](CC(=O)O)C(=O)N[C@@H](C)C(=O)N[C@@H](Cc1ccccn1)C(=O)N[C@@H]([C@@H](C)CC)C(=O)N2)C(=O)N[C@H](C(=O)N[C@@H](Cc1c[nH]c2ccccc12)C(N)=O)C(C)C (single isomer, unassigned) [FP0567c Isomer 2, Ac-A-R8-I-L-D-A-2pyr-I-MB-Nva-V-W-NH2]
CC[C@H](C)[C@@H]1NC(=O)[C@H](Cc2ccccn2)NC(=O)[C@H](C)NC(=O)[C@H](CC(=O)O)NC(=O)[C@H](CC(C)C)NC(=O)[C@H]([C@@H](C)CC)NC(=O)[C@](C)(NC(=O)[C@H](C)NC(C)=O)CCCCCCC=CCOC(=O)N2CC[C@@](C(=O)N[C@H](C(=O)N[C@H](C(=O)N[C@@H](Cc3c[nH]c4ccccc34)C(N)=O)C(C)C)C(C)(C)C)(C2)NC1=O (single isomer, unassigned) [FP0568c Isomer 1, Ac-A-R8-I-L-D-A-2pyr-I-MB-tLeu-V-W-NH2]
CC[C@H](C)[C@@H]1NC(=O)[C@H](Cc2ccccn2)NC(=O)[C@H](C)NC(=O)[C@H](CC(=O)O)NC(=O)[C@H](CC(C)C)NC(=O)[C@H]([C@@H](C)CC)NC(=O)[C@](C)(NC(=O)[C@H](C)NC(C)=O)CCCCCCC=CCOC(=O)N2CC[C@@](C(=O)N[C@H](C(=O)N[C@H](C(=O)N[C@@H](Cc3c[nH]c4ccccc34)C(N)=O)C(C)C)C(C)(C)C)(C2)NC1=O (single isomer, unassigned) [FP0568c Isomer 2, Ac-A-R8-I-L-D-A-2pyr-I-MB-tLeu-V-W-NH2]
CC[C@H](C)[C@@H]1NC(=O)[C@H](Cc2ccccn2)NC(=O)[C@H](C)NC(=O)[C@H](CC(=O)O)NC(=O)[C@H](CC(C)C)NC(=O)[C@H]([C@@H](C)CC)NC(=O)[C@](C)(NC(=O)[C@H](C)NC(C)=O)CCCCCCC=CCOC(=O)N2CC[C@@](C(=O)N[C@@H](Cc3ccco3)C(=O)N[C@H](C(=O)N[C@@H](Cc3c[nH]c4ccccc34)C(N)=O)C(C)C)(C2)NC1=O (single isomer, unassigned) [FP0569c Isomer 1, Ac-A-R8-I-L-D-A-2pyr-I-MB-fur-V-W-NH2]
CC[C@H](C)[C@@H]1NC(=O)[C@H](Cc2ccccn2)NC(=O)[C@H](C)NC(=O)[C@H](CC(=O)O)NC(=O)[C@H](CC(C)C)NC(=O)[C@H]([C@@H](C)CC)NC(=O)[C@](C)(NC(=O)[C@H](C)NC(C)=O)CCCCCCC=CCOC(=O)N2CC[C@@](C(=O)N[C@@H](Cc3ccco3)C(=O)N[C@H](C(=O)N[C@@H](Cc3c[nH]c4ccccc34)C(N)=O)C(C)C)(C2)NC1=O (single isomer, unassigned) [FP0569c Isomer 2, Ac-A-R8-I-L-D-A-2pyr-I-MB-fur-V-W-NH2]
CC[C@H](C)[C@@H]1NC(=O)[C@H](Cc2ccccn2)NC(=O)[C@H](C)NC(=O)[C@H](CC(=O)O)NC(=O)[C@H](CC(C)C)NC(=O)[C@H]([C@@H](C)CC)NC(=O)[C@](C)(NC(=O)[C@H](C)NC(C)=O)CCCCCCC=CCOC(=O)N2CC[C@@](C(=O)NC(C)(C)C(=O)N[C@H](C(=O)N[C@@H](Cc3c[nH]c4ccccc34)C(N)=O)C(C)C)(C2)NC1=O (single isomer, unassigned) [FP0570c Isomer 1, Ac-A-R8-I-L-D-A-2pyr-I-MB-Aib-V-W-NH2]
CC[C@H](C)[C@@H]1NC(=O)[C@H](Cc2ccccn2)NC(=O)[C@H](C)NC(=O)[C@H](CC(=O)O)NC(=O)[C@H](CC(C)C)NC(=O)[C@H]([C@@H](C)CC)NC(=O)[C@](C)(NC(=O)[C@H](C)NC(C)=O)CCCCCCC=CCOC(=O)N2CC[C@@](C(=O)NC(C)(C)C(=O)N[C@H](C(=O)N[C@@H](Cc3c[nH]c4ccccc34)C(N)=O)C(C)C)(C2)NC1=O (single isomer, unassigned) [FP0570c Isomer 2, Ac-A-R8-I-L-D-A-2pyr-I-MB-Aib-V-W-NH2]
CC[C@H](C)[C@@H]1NC(=O)[C@H](Cc2ccccn2)NC(=O)[C@H](C)NC(=O)[C@H](CC(=O)O)NC(=O)[C@H](CC(C)C)NC(=O)[C@H]([C@@H](C)CC)NC(=O)[C@](C)(NC(=O)[C@H](C)NC(C)=O)CCCCCCC=CCOC(=O)N2CC[C@@](C(=O)N[C@@H](Cc3cccs3)C(=O)N[C@H](C(=O)N[C@@H](Cc3c[nH]c4ccccc34)C(N)=O)C(C)C)(C2)NC1=O (single isomer, unassigned) [FP0571c Isomer 1, Ac-A-R8-I-L-D-A-2pyr-I-MB-thi-V-W-NH2]
CC[C@H](C)[C@@H]1NC(=O)[C@H](Cc2ccccn2)NC(=O)[C@H](C)NC(=O)[C@H](CC(=O)O)NC(=O)[C@H](CC(C)C)NC(=O)[C@H]([C@@H](C)CC)NC(=O)[C@](C)(NC(=O)[C@H](C)NC(C)=O)CCCCCCC=CCOC(=O)N2CC[C@@](C(=O)N[C@@H](Cc3cccs3)C(=O)N[C@H](C(=O)N[C@@H](Cc3c[nH]c4ccccc34)C(N)=O)C(C)C)(C2)NC1=O (single isomer, unassigned) [FP0571c Isomer 2, Ac-A-R8-I-L-D-A-2pyr-I-MB-thi-V-W-NH2]
CC[C@H](C)[C@@H]1NC(=O)[C@H](Cc2ccccn2)NC(=O)[C@H](C)NC(=O)[C@H](CC(=O)O)NC(=O)[C@H](CC(C)C)NC(=O)[C@H]([C@@H](C)CC)NC(=O)[C@](C)(NC(=O)[C@H](C)NC(C)=O)CCCCCCC=CCOC(=O)N2CC[C@@](C(=O)N[C@@H](Cc3ccccn3)C(=O)N[C@H](C(=O)N[C@@H](Cc3c[nH]c4ccccc34)C(N)=O)C(C)C)(C2)NC1=O (single isomer, unassigned) [FP0572c Isomer 1, Ac-A-R8-I-L-D-A-2pyr-I-MB-2pyr-V-W-NH2]
CC[C@H](C)[C@@H]1NC(=O)[C@H](Cc2ccccn2)NC(=O)[C@H](C)NC(=O)[C@H](CC(=O)O)NC(=O)[C@H](CC(C)C)NC(=O)[C@H]([C@@H](C)CC)NC(=O)[C@](C)(NC(=O)[C@H](C)NC(C)=O)CCCCCCC=CCOC(=O)N2CC[C@@](C(=O)N[C@@H](Cc3cccnc3)C(=O)N[C@H](C(=O)N[C@@H](Cc3c[nH]c4ccccc34)C(N)=O)C(C)C)(C2)NC1=O (single isomer, unassigned) [FP0573c Isomer 1, Ac-A-R8-I-L-D-A-2pyr-I-MB-3pyr-V-W-NH2]
CC[C@H](C)[C@@H]1NC(=O)[C@H](Cc2ccccn2)NC(=O)[C@H](C)NC(=O)[C@H](CC(=O)O)NC(=O)[C@H](CC(C)C)NC(=O)[C@H]([C@@H](C)CC)NC(=O)[C@](C)(NC(=O)[C@H](C)NC(C)=O)CCCCCCC=CCOC(=O)N2CC[C@@](C(=O)N[C@@H](Cc3cccnc3)C(=O)N[C@H](C(=O)N[C@@H](Cc3c[nH]c4ccccc34)C(N)=O)C(C)C)(C2)NC1=O (single isomer, unassigned) [FP0573c Isomer 2, Ac-A-R8-I-L-D-A-2pyr-I-MB-3pyr-V-W-NH2]
CC[C@H](C)[C@@H]1NC(=O)[C@H](Cc2ccccn2)NC(=O)[C@H](C)NC(=O)[C@H](CC(=O)O)NC(=O)[C@H](CC(C)C)NC(=O)[C@H]([C@@H](C)CC)NC(=O)[C@](C)(NC(=O)[C@H](C)NC(C)=O)CCCCCCC=CCOC(=O)N2CC[C@@](C(=O)N[C@@H](CC3CC3)C(=O)N[C@H](C(=O)N[C@@H](Cc3c[nH]c4ccccc34)C(N)=O)C(C)C)(C2)NC1=O (single isomer, unassigned) [FP0574c Isomer 1, Ac-A-R8-I-L-D-A-2pyr-I-MB-cpa-V-W-NH2]
CC[C@H](C)[C@@H]1NC(=O)[C@H](Cc2ccccn2)NC(=O)[C@H](C)NC(=O)[C@H](CC(=O)O)NC(=O)[C@H](CC(C)C)NC(=O)[C@H]([C@@H](C)CC)NC(=O)[C@](C)(NC(=O)[C@H](C)NC(C)=O)CCCCCCC=CCOC(=O)N2CC[C@@](C(=O)N[C@@H](CC3CC3)C(=O)N[C@H](C(=O)N[C@@H](Cc3c[nH]c4ccccc34)C(N)=O)C(C)C)(C2)NC1=O (single isomer, unassigned) [FP0574c Isomer 2, Ac-A-R8-I-L-D-A-2pyr-I-MB-cpa-V-W-NH2]
